# Like-named read-outs stand apart in the source and are kept apart here.
# Experiments:
# EBOV [1] = assay: microbe, parasite or virus in culture; type: cell-based, Ebola virus; conditions: Zaire ebolavirus
# [2] = test system: EBOV GP-pseudotyped vesicular stomatitis virus; assay: microbe, parasite or virus in culture; type: cell-based, Ebola virus; conditions: Zaire ebolavirus; for inhibition at 50 µM / inhibition at 10 µM: HEK-293T, read-out: EBOV VPEN (% activity)
# [3] = test system: EBOV virus-like particles; type: cell-based, Ebola virus
# [4] = test system: MARV GP-pseudotyped vesicular stomatitis virus; assay: microbe, parasite or virus in culture; type: cell-based, Marburg virus; conditions: Vesicular stomatitis virus; for inhibition at 50 µM / inhibition at 10 µM: HEK-293T, read-out: MASV VPEN (% activity)
# MARV = assay: organism not typed; type: cell-based, Marburg virus
# EBOV [5] = type: cell-based, Ebola virus
# [6] = test system: LASV GP-pseudotyped vesicular stomatitis virus; assay: microbe, parasite or virus in culture; type: cell-based, Lassa virus; conditions: Vesicular stomatitis virus, HEK-293T, read-out: LASV VPEN (% activity)
# LASV = type: cell-based, Lassa virus
# Coxiella burnetii = assay: microbe, parasite or virus in culture; type: cell-based; conditions: Vero, 168 h, read-out: Coxiella burnetii ICR (% protection)
# Bacillus anthracis [7] = type: cell-based; conditions: 50 µM
# Francisella tularensis [8] = type: cell-based; conditions: 50 µM
# Bacillus anthracis [9] = assay: microbe, parasite or virus in culture; type: cell-based; conditions: J774.A1, 15 h, read-out: Bacillus anthracis ICR (% protection)
# Francisella tularensis [10] = assay: microbe, parasite or virus in culture; type: cell-based; conditions: J774.A1, 15 h, read-out: Fransciella tularensis ICR (% protection)
# [11] = humans, dose not given; cited from earlier work
compound,measurement,setting,value
"CCN(CCO)CCCC(C)Nc1ccnc2cc(Cl)ccc12 (stereo not shown) [HCQ, Hydroxychloroquine]",EC50,"EBOV [1]; read-out: EC50, EBOV Replication",22 µM
same,EC90,"EBOV [1]; read-out: EC90, EBOV Replication",32 µM
same,EC50,"[2]; read-out: EC50, EBOV Entry",9.5 µM
same,EC90,"[2]; read-out: EC90, EBOV Entry",85 µM
same,effect on number of VLPs bound per cell,[3],no significant difference in binding
same,EC50,"[4]; read-out: EC50, MARV Entry",9.8 µM
same,EC90,"[4]; read-out: EC90, MARV Entry",52 µM
same,EC50,"MARV; read-out: EC50, MARV Replication",18 µM
same,EC90,"MARV; read-out: EC90, MARV Replication",19 µM
CN1CCC(=C2c3ccccc3CC(=O)c3sccc32)CC1 [Ketotifen],EBOV VR,EBOV [5]; 50 µM,+
same,inhibition at 50 µM,[2],99%
same,inhibition at 50 µM,[4],97%
same,inhibition at 50 µM,[6],33%
same,LASV VR,LASV; 50 µM,−
CCC(=O)O[C@@](Cc1ccccc1)(c1ccccc1)[C@@H](C)CN(C)C [Levopropoxyphene],inhibition at 50 µM,[2],98%
same,inhibition at 50 µM,[4],89%
same,inhibition at 50 µM,[6],79%
CN(C)c1ccc(O)c2c1C[C@H]1C[C@H]3[C@H](N(C)C)C(O)=C(C(N)=O)C(=O)[C@@]3(O)C(O)=C1C2=O [Minocycline],inhibition of growth at 50 µM,Coxiella burnetii,0%
same,Bacillus anthracis Broth (% protection),Bacillus anthracis [7],−
same,Fransciella tularensis Broth (% protection),Francisella tularensis [8],−
same,inhibition at 50 µM,Bacillus anthracis [9],95%
same,inhibition at 50 µM,Francisella tularensis [10],92%
COc1c(C)c2c(c(O)c1C/C=C(\C)CCC(=O)OCCN1CCOCC1)C(=O)OC2 [Mycophenolate mofetil],EBOV VR,EBOV [5]; 50 µM,−
same,inhibition at 50 µM,[2],91%
same,inhibition at 50 µM,[4],81%
same,inhibition at 50 µM,[6],69%
same,LASV VR,LASV; 50 µM,−
CCN[C@@H]1C[C@H](N)[C@@H](O[C@H]2OC(CN)=CC[C@H]2N)[C@H](O)[C@H]1O[C@H]1OC[C@](C)(O)[C@H](NC)[C@H]1O [Netilmicin],inhibition of growth at 50 µM,Coxiella burnetii,100%
same,Bacillus anthracis Broth (% protection),Bacillus anthracis [7],+
same,Fransciella tularensis Broth (% protection),Francisella tularensis [8],+
same,inhibition at 50 µM,Bacillus anthracis [9],98%
same,inhibition at 50 µM,Francisella tularensis [10],-2%
CCn1cc(C(=O)O)c(=O)c2cc(F)c(N3CCNCC3)cc21 [Norfloxacin],Cmax,[11],2000 ng/mL
same,inhibition of growth at 50 µM,Coxiella burnetii,0%
same,Bacillus anthracis Broth (% protection),Bacillus anthracis [7],+
same,Fransciella tularensis Broth (% protection),Francisella tularensis [8],+
same,inhibition at 50 µM,Bacillus anthracis [9],105%
same,inhibition at 50 µM,Francisella tularensis [10],83%
CN1CCCN=C1COC(=O)C(O)(c1ccccc1)C1CCCCC1 (stereo not shown) [Oxyphencyclimine],EBOV VR,EBOV [5]; 50 µM,−
same,inhibition at 50 µM,[2],95%
same,inhibition at 50 µM,[4],89%
same,inhibition at 50 µM,[6],28%
same,LASV VR,LASV; 50 µM,−
CN(C)[C@@H]1C(O)=C(C(N)=O)C(=O)[C@@]2(O)C(O)=C3C(=O)c4c(O)cccc4[C@@](C)(O)[C@H]3[C@H](O)[C@@H]12 [Oxytetracycline],inhibition of growth at 50 µM,Coxiella burnetii,0%
same,Bacillus anthracis Broth (% protection),Bacillus anthracis [7],+
same,Fransciella tularensis Broth (% protection),Francisella tularensis [8],+
same,inhibition at 50 µM,Bacillus anthracis [9],94%
same,inhibition at 50 µM,Francisella tularensis [10],92%
Fc1ccc([C@@H]2CCNC[C@H]2COc2ccc3c(c2)OCO3)cc1 [Paroxetine],EBOV VR,EBOV [5]; 10 µM,−
same,inhibition at 10 µM,[2]; 10 µM,98%
same,inhibition at 10 µM,[4]; 10 µM,89%
same,inhibition at 10 µM,[6]; 10 µM,6%
same,LASV VR,LASV; 10 µM,−
CC(C)(C)NC[C@H](O)COc1ccccc1C1CCCC1 [Penbutolol],inhibition at 10 µM,[2]; 10 µM,98%
same,inhibition at 10 µM,[4]; 10 µM,81%
same,inhibition at 10 µM,[6]; 10 µM,67%
CN1CCN(CCCN2c3ccccc3Sc3ccc(Cl)cc32)CC1 [Prochlorperazine],inhibition at 10 µM,[2]; 10 µM,95%
same,inhibition at 10 µM,[4]; 10 µM,93%
same,inhibition at 10 µM,[6]; 10 µM,70%
CNCCCC1c2ccccc2C=Cc2ccccc21 [Protriptyline],inhibition at 10 µM,[2],83%
same,inhibition at 10 µM,[4],80%
same,inhibition at 10 µM,[6],28%
CN(C)[C@@H]1C(O)=C(C(N)=O)C(=O)[C@@]2(O)C(O)=C3C(=O)c4c(O)cccc4[C@@](C)(O)[C@H]3C[C@@H]12 [Tetracycline],inhibition of growth at 50 µM,Coxiella burnetii,0%
same,inhibition at 50 µM,Bacillus anthracis [9],105%
same,inhibition at 50 µM,Francisella tularensis [10],103%
CN(C)CCOc1ccc(/C(=C(/CCCl)c2ccccc2)c2ccccc2)cc1 [Toremifene],inhibition at 10 µM,[2]; 10 µM,97%
same,inhibition at 10 µM,[4]; 10 µM,96%
same,inhibition at 10 µM,[6]; 10 µM,76%
OC(CCN1CCCCC1)(c1ccccc1)C1CCCCC1 (stereo not shown) [Trihexyphenidyl],EBOV VR,EBOV [5],−
same,inhibition at 10 µM,[2],97%
same,inhibition at 10 µM,[4],91%
same,inhibition at 10 µM,[6],52%
same,LASV VR,LASV,−

# From paper PMC3618516, “A Systematic Screen of FDA-Approved Drugs for Inhibitors of Biological Threat Agents” (PLoS ONE, 2013)
